Results reported in ChEMBL document CHEMBL3797105, “Investigation of triazole-linked indole and oxindole glycoconjugates as potential anticancer agents: novel Akt/PKB signaling pathway inhibitors” (Medchemcomm, 2016).
pIC50: −log10 of the molar value.

Experiments:
MCF7 = assay: Cytotoxicity against human MCF7 cells after 48 hrs by sulforhodamine B assay; format: functional, cell-based; details: MCF7, 48 h
A549 = assay: Cytotoxicity against human A549 cells after 48 hrs by sulforhodamine B assay; format: functional, cell-based; details: A549, 48 h
HeLa = assay: Cytotoxicity against human HeLa cells after 48 hrs by sulforhodamine B assay; format: functional, cell-based
[1] = Cytotoxicity against mouse NIH/3T3 cells after 48 hrs by sulforhodamine B assay; details: NIH3T3, 48 h
[2] = Cytotoxicity against human DU145 cells after 48 hrs by sulforhodamine B assay; format: functional, cell-based; details: DU-145, 48 h

Row | Structure (SMILES) | pIC50 (MCF7) | pIC50 (A549) | pIC50 (HeLa) | pIC50 [1] | pIC50 [2]
1 | CC(=O)OC[C@H]1O[C@@H](n2cc(CN3C(=O)/C(=C/c4ccccc4)c4ccccc43)nn2)[C@H](OC(C)=O)[C@@H](OC(C)=O)[C@@H]1OC(C)=O | 4.52 | 4.69 | 4.43 | < 4.00 | 4.64
2 | COc1cccc2c1C(=O)c1c(O)c3c(c(O)c1C2=O)C[C@@](O)(C(=O)CO)C[C@@H]3O[C@H]1C[C@H](N)[C@H](O)[C@H](C)O1 [DOXORUBICIN] | 5.21 | – | 5.14 | 5.00 | 5.27
3 | CC(=O)OC[C@H]1O[C@@H](n2cc(CN3C(=O)/C(=C/c4ccco4)c4ccccc43)nn2)[C@H](OC(C)=O)[C@@H](OC(C)=O)[C@@H]1OC(C)=O | 4.54 | 4.84 | 4.52 | 4.50 | 5.00
4 | CCC/C=C1\C(=O)N(Cc2cn([C@@H]3O[C@H](COC(C)=O)[C@@H](OC(C)=O)[C@H](OC(C)=O)[C@H]3OC(C)=O)nn2)c2ccccc21 | 4.60 | 4.39 | 4.33 | < 4.00 | 4.58
5 | CCC/C=C1/C(=O)N(Cc2cn([C@@H]3O[C@H](COC(C)=O)[C@@H](OC(C)=O)[C@H](OC(C)=O)[C@H]3OC(C)=O)nn2)c2ccccc21 | 4.65 | 4.62 | < 4.00 | < 4.00 | 4.71
6 | CC(=O)OC[C@H]1O[C@@H](n2cc(CN3C(=O)/C(=C\c4ccc(N(C)C)cc4)c4ccccc43)nn2)[C@H](OC(C)=O)[C@@H](OC(C)=O)[C@@H]1OC(C)=O | 4.53 | 4.75 | 4.60 | 4.77 | 5.00
7 | CC(=O)OC[C@H]1O[C@@H](n2cc(Cn3cc([N+](=O)[O-])c4ccccc43)nn2)[C@H](OC(C)=O)[C@@H](OC(C)=O)[C@@H]1OC(C)=O | < 3.70 | 4.03 | < 3.70 | 4.69 | 4.22
8 | CC(=O)OC[C@H]1O[C@@H](n2cc(CN3C(=O)/C(=C/c4cccs4)c4ccccc43)nn2)[C@H](OC(C)=O)[C@@H](OC(C)=O)[C@@H]1OC(C)=O | 4.55 | 4.68 | 4.43 | 4.32 | 4.63
9 | O=C(/C=C/c1c[nH]c2ccccc12)c1ccccc1 | < 3.70 | < 3.70 | < 3.70 | < 3.70 | < 3.70
10 | COc1ccc2c(c1)c(C=O)cn2Cc1cn([C@@H]2O[C@H](COC(C)=O)[C@@H](OC(C)=O)[C@H](OC(C)=O)[C@H]2OC(C)=O)nn1 | < 3.70 | 3.97 | < 3.70 | < 3.70 | 3.87
11 | CC(=O)OC[C@H]1O[C@@H](n2cc(CN3C(=O)/C(=C/C=C/c4ccccc4)c4ccccc43)nn2)[C@H](OC(C)=O)[C@@H](OC(C)=O)[C@@H]1OC(C)=O | 4.27 | < 4.00 | < 4.00 | 4.91 | 4.77
12 | CC(=O)OC[C@H]1O[C@@H](n2cc(Cn3cc(/C=C/C(=O)c4cccnc4)c4ccccc43)nn2)[C@H](OC(C)=O)[C@@H](OC(C)=O)[C@@H]1OC(C)=O | 4.65 | 4.40 | < 3.70 | < 3.70 | 4.54
13 | COc1ccc2c(c1)c(/C=N/O)cn2Cc1cn([C@@H]2O[C@H](COC(C)=O)[C@@H](OC(C)=O)[C@H](OC(C)=O)[C@H]2OC(C)=O)nn1 | 4.29 | < 3.70 | < 3.70 | 4.58 | 4.05
14 | COc1ccc(/C=C2\C(=O)N(Cc3cn([C@@H]4O[C@H](COC(C)=O)[C@@H](OC(C)=O)[C@H](OC(C)=O)[C@H]4OC(C)=O)nn3)c3ccccc32)cc1OC | 4.63 | 4.63 | 4.20 | < 4.00 | 4.60
15 | CC(=O)OC[C@H]1O[C@@H](n2cc(CN3C(=O)/C(=C\c4ccccc4)c4ccccc43)nn2)[C@H](OC(C)=O)[C@@H](OC(C)=O)[C@@H]1OC(C)=O | 4.61 | 4.75 | 4.48 | 4.64 | 4.62
16 | CC(=O)OC[C@H]1O[C@@H](n2cc(CN3C(=O)/C(=C\c4cccs4)c4ccccc43)nn2)[C@H](OC(C)=O)[C@@H](OC(C)=O)[C@@H]1OC(C)=O | 4.44 | 4.79 | < 4.00 | 4.84 | 4.64

Row | Structure (SMILES) | pIC50 (MCF7) | pIC50 (A549) | pIC50 (HeLa) | pIC50 [1] | pIC50 [2]
17 | CC(=O)OC[C@H]1O[C@@H](n2cc(Cn3cc(/C=C4/C(=O)Nc5ccccc54)c4ccccc43)nn2)[C@H](OC(C)=O)[C@@H](OC(C)=O)[C@@H]1OC(C)=O | 4.65 | < 3.70 | < 3.70 | < 3.70 | < 3.70
18 | CC(=O)OC[C@H]1O[C@@H](n2cc(CN3C(=O)/C(=C\c4ccco4)c4ccccc43)nn2)[C@H](OC(C)=O)[C@@H](OC(C)=O)[C@@H]1OC(C)=O | 4.42 | 4.39 | < 4.00 | 4.88 | 4.77
19 | CC(=O)OC[C@H]1O[C@@H](OC(C)=O)[C@H](OC(C)=O)[C@@H](OC(C)=O)[C@@H]1OC(C)=O | < 3.70 | < 3.70 | < 3.70 | < 3.70 | < 3.70
20 | CC(=O)OC[C@H]1O[C@@H](n2cc(Cn3cc(/C=C/C(=O)c4c5ccccc5cc5ccccc45)c4ccccc43)nn2)[C@H](OC(C)=O)[C@@H](OC(C)=O)[C@@H]1OC(C)=O | 4.36 | 4.33 | 3.78 | < 3.70 | 4.24
21 | CC(=O)OC[C@H]1O[C@@H](n2cc(CN3C(=O)/C(=C\c4ccc(C)cc4)c4ccccc43)nn2)[C@H](OC(C)=O)[C@@H](OC(C)=O)[C@@H]1OC(C)=O | < 4.00 | 4.78 | < 4.00 | 5.05 | 5.03
22 | CC(=O)OC[C@H]1O[C@@H](n2cc(CN3C(=O)/C(=C/c4ccccn4)c4ccccc43)nn2)[C@H](OC(C)=O)[C@@H](OC(C)=O)[C@@H]1OC(C)=O | 4.49 | 4.58 | 4.29 | < 4.00 | 4.32
23 | Cc1ccc(/C=C2/C(=O)Nc3ccccc32)cc1 | < 4.00 | < 4.00 | < 4.00 | < 4.00 | < 4.00
24 | COc1ccc2c(c1)c(/C=C1/C(=O)Nc3ccc(F)cc31)cn2Cc1cn([C@@H]2O[C@H](COC(C)=O)[C@@H](OC(C)=O)[C@H](OC(C)=O)[C@H]2OC(C)=O)nn1 | < 3.70 | < 3.70 | < 3.70 | < 3.70 | < 3.70
25 | CC(=O)OC[C@H]1O[C@@H](n2cc(CN3C(=O)/C(=C\c4ccc5ccccc5c4)c4ccccc43)nn2)[C@H](OC(C)=O)[C@@H](OC(C)=O)[C@@H]1OC(C)=O | 4.33 | 4.21 | < 4.00 | 4.10 | < 4.00
26 | CC(=O)OC[C@H]1O[C@@H](n2cc(CN3C(=O)/C(=C/c4ccc5ccccc5c4)c4ccccc43)nn2)[C@H](OC(C)=O)[C@@H](OC(C)=O)[C@@H]1OC(C)=O | 4.49 | 4.51 | < 4.00 | 4.55 | 4.36
27 | CC(=O)OC[C@H]1O[C@@H](n2cc(CN3C(=O)/C(=C\C=C\c4ccccc4)c4ccccc43)nn2)[C@H](OC(C)=O)[C@@H](OC(C)=O)[C@@H]1OC(C)=O | 4.47 | 4.23 | 4.01 | 4.59 | 4.71
28 | CC(=O)OC[C@H]1O[C@@H](n2cc(Cn3cc(C=O)c4ccccc43)nn2)[C@H](OC(C)=O)[C@@H](OC(C)=O)[C@@H]1OC(C)=O | 4.60 | < 3.70 | 4.35 | < 3.70 | 4.23
29 | CC(=O)OC[C@H]1O[C@@H](n2cc(Cn3cc(/C=C4/C(=O)Nc5ccc(F)cc54)c4ccccc43)nn2)[C@H](OC(C)=O)[C@@H](OC(C)=O)[C@@H]1OC(C)=O | 4.39 | 4.43 | < 3.70 | 4.20 | 4.06
30 | CC(=O)OC[C@H]1O[C@@H](n2cc(CN3C(=O)/C(=C/c4ccc(N(C)C)cc4)c4ccccc43)nn2)[C@H](OC(C)=O)[C@@H](OC(C)=O)[C@@H]1OC(C)=O | 4.60 | 4.71 | 4.58 | 4.90 | 4.95
31 | CC(=O)OC[C@H]1O[C@@H](n2cc(Cn3cc(C(C)=O)c4ccccc43)nn2)[C@H](OC(C)=O)[C@@H](OC(C)=O)[C@@H]1OC(C)=O | < 3.70 | < 3.70 | < 3.70 | < 3.70 | 4.12
